Key:
Experiment in all cases: KINOMEscan competition binding
Details in all cases: compound 10.0 µM
CAMK4 (human) = CAMK4 (human) (UniProt Q16566)
CSNK1G3 (human) = CSNK1G3 (human) (UniProt Q9Y6M4)
BLK (human) = BLK (human) (UniProt P51451)
TNNI3K (human) = TNNI3K (human) (UniProt Q59H18)
PKN1 (human) = PKN1 (human) (UniProt Q16512)
NTRK1 (human) = NTRK1 (human) (UniProt P04629)
TNK1 (human) = TNK1 (human) (UniProt Q13470)
WEE2 (human) = WEE2 (human) (UniProt P0C1S8)
MAP3K4 (human) = MAP3K4 (human) (UniProt Q9Y6R4)
ANKK1 (human) = ANKK1 (human) (UniProt Q8NFD2)
STK35 (human) = STK35 (human) (UniProt Q8TDR2)
ABL2 (human) = ABL2 (human) (UniProt P42684)
NUAK2 (human) = NUAK2 (human) (UniProt Q9H093)
[1] = system: FLT3 (human), P36888 [N841I]
MAPK11 (human) = MAPK11 (human) (UniProt Q15759)
CaMK1 (human) = CaMK1 (human) (UniProt Q14012)
PIP4K2B (human) = PIP4K2B (human) (UniProt P78356)
PRKCD (human) = PRKCD (human) (UniProt Q05655)
PTK2B (human) = PTK2B (human) (UniProt Q14289)
CIT (human) = CIT (human) (UniProt O14578)
CAMK1G (human) = CAMK1G (human) (UniProt Q96NX5)
CSNK1E (human) = CSNK1E (human) (UniProt P49674)
TSSK1B (human) = TSSK1B (human) (UniProt Q9BXA7)
BRSK2 (human) = BRSK2 (human) (UniProt Q8IWQ3)
MAP4K5 (human) = MAP4K5 (human) (UniProt Q9Y4K4)
[2] = system: EIF2AK4 KD2 (human), Q9P2K8 [S808G]
PTK6 (human) = PTK6 (human) (UniProt Q13882)
DAPK3 (human) = DAPK3 (human) (UniProt O43293)
MYLK (human) = MYLK (human) (UniProt Q15746)
MAP3K3 (human) = MAP3K3 (human) (UniProt Q99759)
EPHA7 (human) = EPHA7 (human) (UniProt Q15375)
TNIK (human) = TNIK (human) (UniProt Q9UKE5)
NEK5 (human) = NEK5 (human) (UniProt Q6P3R8)
PDPK1 (human) = PDPK1 (human) (UniProt O15530)
AURKC (human) = AURKC (human) (UniProt Q9UQB9)
CDK14 (human) = CDK14 (human) (UniProt O94921)
PLK3 (human) = PLK3 (human) (UniProt Q9H4B4)
MELK (human) = MELK (human) (UniProt Q14680)
RIOK1 (human) = RIOK1 (human) (UniProt Q9BRS2)
TLK1 (human) = TLK1 (human) (UniProt Q9UKI8)

Sequence of PTK6 (human) (Q13882 whole entry, looked up): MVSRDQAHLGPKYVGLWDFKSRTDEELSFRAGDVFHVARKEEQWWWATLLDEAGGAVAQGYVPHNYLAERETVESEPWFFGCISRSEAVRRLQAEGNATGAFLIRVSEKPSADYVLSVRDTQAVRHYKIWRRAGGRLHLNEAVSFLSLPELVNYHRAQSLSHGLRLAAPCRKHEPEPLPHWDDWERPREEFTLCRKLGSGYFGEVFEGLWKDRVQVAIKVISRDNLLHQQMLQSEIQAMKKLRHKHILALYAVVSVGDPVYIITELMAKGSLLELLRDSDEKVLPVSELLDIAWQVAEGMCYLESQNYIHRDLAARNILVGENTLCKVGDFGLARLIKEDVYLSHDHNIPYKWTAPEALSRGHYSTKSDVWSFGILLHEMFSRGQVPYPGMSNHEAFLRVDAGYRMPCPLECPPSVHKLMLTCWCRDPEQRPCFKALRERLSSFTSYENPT
Sequence of STK35 (human) (Q8TDR2 whole entry, looked up): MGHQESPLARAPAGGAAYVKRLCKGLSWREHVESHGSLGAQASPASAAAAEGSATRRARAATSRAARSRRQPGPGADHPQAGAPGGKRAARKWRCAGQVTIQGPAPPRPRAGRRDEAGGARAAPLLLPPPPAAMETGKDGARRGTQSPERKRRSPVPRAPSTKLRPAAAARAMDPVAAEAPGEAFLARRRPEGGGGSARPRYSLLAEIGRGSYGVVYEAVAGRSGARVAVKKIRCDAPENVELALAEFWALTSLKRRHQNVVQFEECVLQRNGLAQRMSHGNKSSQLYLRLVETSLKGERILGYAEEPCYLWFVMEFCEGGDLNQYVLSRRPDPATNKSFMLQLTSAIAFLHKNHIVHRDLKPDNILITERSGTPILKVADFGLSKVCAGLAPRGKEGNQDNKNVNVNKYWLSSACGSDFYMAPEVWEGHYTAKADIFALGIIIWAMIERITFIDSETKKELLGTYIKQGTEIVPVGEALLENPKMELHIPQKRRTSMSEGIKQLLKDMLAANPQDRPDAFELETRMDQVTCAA
Sequence of MYLK (human) (Q15746 whole entry, looked up): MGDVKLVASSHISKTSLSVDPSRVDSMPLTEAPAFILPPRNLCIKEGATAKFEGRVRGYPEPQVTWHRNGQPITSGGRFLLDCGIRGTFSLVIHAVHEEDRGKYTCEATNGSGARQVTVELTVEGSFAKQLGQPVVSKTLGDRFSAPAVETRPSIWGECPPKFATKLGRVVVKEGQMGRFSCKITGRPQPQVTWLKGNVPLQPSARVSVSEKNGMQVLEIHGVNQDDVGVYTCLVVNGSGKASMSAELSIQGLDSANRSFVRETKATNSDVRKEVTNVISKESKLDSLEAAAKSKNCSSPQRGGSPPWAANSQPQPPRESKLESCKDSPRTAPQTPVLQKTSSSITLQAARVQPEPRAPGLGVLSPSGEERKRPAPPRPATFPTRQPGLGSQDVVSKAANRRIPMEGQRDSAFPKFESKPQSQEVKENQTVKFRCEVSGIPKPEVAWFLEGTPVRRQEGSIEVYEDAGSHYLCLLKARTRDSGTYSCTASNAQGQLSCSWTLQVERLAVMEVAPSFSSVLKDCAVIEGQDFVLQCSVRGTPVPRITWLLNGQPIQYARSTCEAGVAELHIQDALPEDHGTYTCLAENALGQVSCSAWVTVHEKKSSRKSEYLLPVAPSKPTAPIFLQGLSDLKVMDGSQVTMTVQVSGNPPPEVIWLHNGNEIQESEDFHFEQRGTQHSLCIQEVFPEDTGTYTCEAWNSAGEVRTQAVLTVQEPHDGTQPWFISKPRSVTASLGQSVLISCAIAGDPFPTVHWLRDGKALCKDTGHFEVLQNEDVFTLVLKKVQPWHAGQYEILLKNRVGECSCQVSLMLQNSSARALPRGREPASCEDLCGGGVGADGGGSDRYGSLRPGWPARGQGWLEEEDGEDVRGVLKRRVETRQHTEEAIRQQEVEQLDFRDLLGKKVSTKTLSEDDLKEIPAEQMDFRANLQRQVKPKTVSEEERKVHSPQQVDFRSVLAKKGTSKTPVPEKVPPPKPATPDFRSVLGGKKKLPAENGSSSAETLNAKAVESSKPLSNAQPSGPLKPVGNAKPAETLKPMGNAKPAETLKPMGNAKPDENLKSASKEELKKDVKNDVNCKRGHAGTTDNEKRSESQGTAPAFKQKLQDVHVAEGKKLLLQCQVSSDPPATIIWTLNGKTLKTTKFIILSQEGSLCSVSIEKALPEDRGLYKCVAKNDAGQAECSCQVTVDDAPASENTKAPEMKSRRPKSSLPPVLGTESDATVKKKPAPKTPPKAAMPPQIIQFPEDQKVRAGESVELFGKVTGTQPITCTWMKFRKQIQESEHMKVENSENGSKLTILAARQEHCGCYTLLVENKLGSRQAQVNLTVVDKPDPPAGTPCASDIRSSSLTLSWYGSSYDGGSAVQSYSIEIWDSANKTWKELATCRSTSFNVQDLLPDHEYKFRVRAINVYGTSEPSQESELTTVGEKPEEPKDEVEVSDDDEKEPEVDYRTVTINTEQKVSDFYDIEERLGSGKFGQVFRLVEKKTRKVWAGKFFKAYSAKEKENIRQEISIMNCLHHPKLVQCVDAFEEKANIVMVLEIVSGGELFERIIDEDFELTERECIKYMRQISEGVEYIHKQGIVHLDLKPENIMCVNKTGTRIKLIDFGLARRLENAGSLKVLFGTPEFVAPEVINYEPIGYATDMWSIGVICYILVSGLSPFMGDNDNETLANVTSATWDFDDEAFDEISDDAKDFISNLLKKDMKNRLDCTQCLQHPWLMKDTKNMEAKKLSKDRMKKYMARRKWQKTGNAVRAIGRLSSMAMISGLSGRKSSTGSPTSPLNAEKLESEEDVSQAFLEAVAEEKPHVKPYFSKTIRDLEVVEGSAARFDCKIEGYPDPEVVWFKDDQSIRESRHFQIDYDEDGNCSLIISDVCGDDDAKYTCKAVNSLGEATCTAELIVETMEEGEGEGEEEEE
Sequence of TNK1 (human) (Q13470 whole entry, looked up): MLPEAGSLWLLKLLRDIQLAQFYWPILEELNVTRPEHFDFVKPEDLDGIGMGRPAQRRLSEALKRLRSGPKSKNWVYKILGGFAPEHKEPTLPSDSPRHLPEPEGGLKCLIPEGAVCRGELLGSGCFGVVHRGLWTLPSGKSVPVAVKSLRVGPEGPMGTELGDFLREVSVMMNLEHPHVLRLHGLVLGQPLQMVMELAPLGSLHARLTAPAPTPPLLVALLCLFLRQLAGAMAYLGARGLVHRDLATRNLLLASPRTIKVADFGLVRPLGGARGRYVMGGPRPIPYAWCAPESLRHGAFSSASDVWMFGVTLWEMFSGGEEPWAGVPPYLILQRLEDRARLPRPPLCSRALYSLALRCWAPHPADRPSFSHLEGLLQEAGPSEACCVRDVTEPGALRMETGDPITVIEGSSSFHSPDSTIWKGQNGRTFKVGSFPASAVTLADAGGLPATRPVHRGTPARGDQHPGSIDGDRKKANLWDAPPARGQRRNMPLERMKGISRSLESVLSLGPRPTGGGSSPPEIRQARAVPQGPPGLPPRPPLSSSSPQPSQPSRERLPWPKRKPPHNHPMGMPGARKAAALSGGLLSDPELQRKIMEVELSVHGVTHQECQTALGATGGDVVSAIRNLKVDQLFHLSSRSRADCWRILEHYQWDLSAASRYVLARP
Sequence of BLK (human) (P51451 whole entry, looked up): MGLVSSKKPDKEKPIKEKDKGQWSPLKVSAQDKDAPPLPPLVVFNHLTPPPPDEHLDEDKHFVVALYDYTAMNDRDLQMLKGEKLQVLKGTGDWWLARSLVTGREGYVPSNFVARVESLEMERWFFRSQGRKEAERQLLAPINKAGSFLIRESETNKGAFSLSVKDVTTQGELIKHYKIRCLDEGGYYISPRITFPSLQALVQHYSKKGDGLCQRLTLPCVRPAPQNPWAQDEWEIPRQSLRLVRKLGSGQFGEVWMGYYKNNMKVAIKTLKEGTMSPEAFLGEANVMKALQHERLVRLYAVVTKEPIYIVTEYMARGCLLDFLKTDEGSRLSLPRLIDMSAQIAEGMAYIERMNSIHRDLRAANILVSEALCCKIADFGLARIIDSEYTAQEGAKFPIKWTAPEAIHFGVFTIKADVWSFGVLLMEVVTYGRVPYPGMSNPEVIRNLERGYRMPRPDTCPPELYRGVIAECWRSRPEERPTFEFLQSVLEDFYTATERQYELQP
Sequence of BRSK2 (human) (Q8IWQ3 whole entry, looked up): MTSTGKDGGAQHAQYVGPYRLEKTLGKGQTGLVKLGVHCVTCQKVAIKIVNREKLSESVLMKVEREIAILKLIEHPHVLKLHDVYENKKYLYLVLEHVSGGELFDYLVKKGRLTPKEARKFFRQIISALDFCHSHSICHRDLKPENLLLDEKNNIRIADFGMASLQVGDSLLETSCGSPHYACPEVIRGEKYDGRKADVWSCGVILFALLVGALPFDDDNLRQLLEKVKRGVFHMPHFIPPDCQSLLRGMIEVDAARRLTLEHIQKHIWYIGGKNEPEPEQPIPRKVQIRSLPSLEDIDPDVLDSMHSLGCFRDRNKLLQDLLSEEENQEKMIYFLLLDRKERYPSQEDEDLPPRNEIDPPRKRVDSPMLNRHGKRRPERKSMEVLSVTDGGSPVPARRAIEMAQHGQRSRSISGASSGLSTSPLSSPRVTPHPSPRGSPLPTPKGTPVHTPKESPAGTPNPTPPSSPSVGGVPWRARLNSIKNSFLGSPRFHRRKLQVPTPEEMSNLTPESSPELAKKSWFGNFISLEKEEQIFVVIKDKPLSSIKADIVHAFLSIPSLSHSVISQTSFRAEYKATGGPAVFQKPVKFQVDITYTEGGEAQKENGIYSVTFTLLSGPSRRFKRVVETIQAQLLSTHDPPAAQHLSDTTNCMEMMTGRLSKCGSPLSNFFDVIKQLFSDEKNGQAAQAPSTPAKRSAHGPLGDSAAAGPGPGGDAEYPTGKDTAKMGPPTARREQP

SMILES	kinase still bound, per cent of control (CAMK4 (human)) [%]	kinase still bound, per cent of control (CSNK1G3 (human)) [%]	kinase still bound, per cent of control (BLK (human)) [%]	kinase still bound, per cent of control (TNNI3K (human)) [%]	kinase still bound, per cent of control (PKN1 (human)) [%]	kinase still bound, per cent of control (NTRK1 (human)) [%]	kinase still bound, per cent of control (TNK1 (human)) [%]	kinase still bound, per cent of control (WEE2 (human)) [%]	kinase still bound, per cent of control (MAP3K4 (human)) [%]	kinase still bound, per cent of control (ANKK1 (human)) [%]	kinase still bound, per cent of control (STK35 (human)) [%]	kinase still bound, per cent of control (ABL2 (human)) [%]	kinase still bound, per cent of control (NUAK2 (human)) [%]	kinase still bound, per cent of control [1] [%]	kinase still bound, per cent of control (MAPK11 (human)) [%]	kinase still bound, per cent of control (CaMK1 (human)) [%]	kinase still bound, per cent of control (PIP4K2B (human)) [%]	kinase still bound, per cent of control (PRKCD (human)) [%]	kinase still bound, per cent of control (PTK2B (human)) [%]	kinase still bound, per cent of control (CIT (human)) [%]	other results
C[C@@H](Oc1cc(-n2cnc3ccc(CN4CCN(C)CC4)cc32)sc1C(N)=O)c1ccccc1C(F)(F)F	100	100	100	92	46	74	87	83	100	26	76	90	1.2	1.2	100	90	5.8	22	82	87	kinase still bound, per cent of control (CAMK1G (human)): 58%; kinase still bound, per cent of control (CSNK1E (human)): 100%; kinase still bound, per cent of control (TSSK1B (human)): 19%; kinase still bound, per cent of control (BRSK2 (human)): 52%; kinase still bound, per cent of control (MAP4K5 (human)): 68%; kinase still bound, per cent of control [2]: 29%; kinase still bound, per cent of control (PTK6 (human)): 93%; kinase still bound, per cent of control (DAPK3 (human)): 15%; kinase still bound, per cent of control (MYLK (human)): 62%; kinase still bound, per cent of control (MAP3K3 (human)): 88%; kinase still bound, per cent of control (EPHA7 (human)): 83%; kinase still bound, per cent of control (TNIK (human)): 78%; kinase still bound, per cent of control (NEK5 (human)): 25%; kinase still bound, per cent of control (PDPK1 (human)): 100%; kinase still bound, per cent of control (AURKC (human)): 100%; kinase still bound, per cent of control (CDK14 (human)): 94%; kinase still bound, per cent of control (PLK3 (human)): 3.6%; kinase still bound, per cent of control (MELK (human)): 49%; kinase still bound, per cent of control (RIOK1 (human)): 4.4%; kinase still bound, per cent of control (TLK1 (human)): 71%
C=CC(=O)Nc1cccc(Oc2nc(Nc3ccc(N4CCN(C)CC4)cc3OC)ncc2Cl)c1	100	100	0.75	100	100	100	1.8	100	100	100	100	100	0.3	0.25	100	100	100	100	25	100	kinase still bound, per cent of control (CAMK1G (human)): 100%; kinase still bound, per cent of control (CSNK1E (human)): 100%; kinase still bound, per cent of control (TSSK1B (human)): 100%; kinase still bound, per cent of control (BRSK2 (human)): 100%; kinase still bound, per cent of control (MAP4K5 (human)): 100%; kinase still bound, per cent of control [2]: 0.35%; kinase still bound, per cent of control (PTK6 (human)): 100%; kinase still bound, per cent of control (DAPK3 (human)): 7.4%; kinase still bound, per cent of control (MYLK (human)): 100%; kinase still bound, per cent of control (MAP3K3 (human)): 100%; kinase still bound, per cent of control (EPHA7 (human)): 100%; kinase still bound, per cent of control (TNIK (human)): 100%; kinase still bound, per cent of control (NEK5 (human)): 100%; kinase still bound, per cent of control (PDPK1 (human)): 100%; kinase still bound, per cent of control (AURKC (human)): 4.5%; kinase still bound, per cent of control (CDK14 (human)): 100%; kinase still bound, per cent of control (PLK3 (human)): 100%; kinase still bound, per cent of control (MELK (human)): 14%; kinase still bound, per cent of control (RIOK1 (human)): 17%; kinase still bound, per cent of control (TLK1 (human)): 100%
